Experimental data taken from ChEMBL document CHEMBL1201862, “PubChem BioAssay data set” (2004).
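Compound exposure: 48 hours, 5 concentrations, 96-well plates. GI50 marks 50% less growth.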 Activity calls are given as the source filed them. No stated cut-off is given here; in the data, active = GI50 up to about 1.1 µM and inactive = higher.

How the values were obtained:
Experiment in all cases: DTP human tumour cell line panel, 48 h
CAKI-1 = system: CAKI-1
LXFL 529 = system: LXFL 529
SK-MEL-28 = system: SK-MEL-28
UO-31 = system: UO-31
UACC-257 = system: UACC-257
DLD-1 = system: DLD-1
DMS-114 = system: DMS-114
HT-29 = system: HT-29
COLO 205 = system: COLO 205
SK-OV-3 = system: SK-OV-3
SNB-75 = system: SNB-75
HOP-92 = system: HOP-92
EKVX = system: EKVX
RXF 631 = system: RXF 631
Malme-3M = system: Malme-3M
MOLT-4 = system: MOLT-4
SF-539 = system: SF-539
CCRF-CEM = system: CCRF-CEM
K562 = system: K562
HL-60 = system: HL-60
UACC-62 = system: UACC-62
HCT-116 = system: HCT-116
HCC 2998 = system: HCC 2998
SK-MEL-2 = system: SK-MEL-2
SR = system: SR
NCI-H226 = system: NCI-H226
IGROV-1 = system: IGROV-1
OVCAR-8 = system: OVCAR-8
SF-268 = system: SF-268
TK-10 = system: TK-10
SN12C = system: SN12C
NCI-H522 = system: NCI-H522
DMS-273 = system: DMS-273
OVCAR-4 = system: OVCAR-4
786-0 = system: 786-0
SF-295 = system: SF-295
A549 = system: A549
SW-620 = system: SW-620
KM12 = system: KM12
SNB-19 = system: SNB-19
M14 = system: M14
SNB-78 = system: SNB-78
OVCAR-3 = system: OVCAR-3
NCI-H23 = system: NCI-H23
HOP-62 = system: HOP-62
RPMI-8226 = system: RPMI-8226
M19-MEL = system: M19-MEL
OVCAR-5 = system: OVCAR-5
RXF 393 = system: RXF 393
ACHN = system: ACHN
U-251 = system: U-251
NCI-H460 = system: NCI-H460
KM-20L2 = system: KM-20L2
LOX IMVI = system: LOX IMVI
HCT-15 = system: HCT-15
SK-MEL-5 = system: SK-MEL-5
HOP-18 = system: HOP-18
A498 = system: A498
XF498 = system: XF498

Measured: GI50

Cc1cccc2c3ccc4c(c3n(C)c12)C(=O)C=CC4=O
inactive: CAKI-1 > 100 µM | LXFL 529 > 100 µM | SK-MEL-28 > 100 µM | UO-31 28.9 µM | UACC-257 > 100 µM | DLD-1 > 100 µM | DMS-114 41.1 µM | HT-29 > 100 µM | COLO 205 > 100 µM | SK-OV-3 > 100 µM | SNB-75 > 100 µM | HOP-92 > 100 µM | EKVX > 100 µM | RXF 631 > 100 µM | Malme-3M > 100 µM | MOLT-4 35.9 µM | SF-539 > 100 µM | CCRF-CEM 18.2 µM | K562 > 100 µM | HL-60 17.1 µM | UACC-62 59.7 µM | HCT-116 > 100 µM | HCC 2998 > 100 µM | SK-MEL-2 > 100 µM | SR 29.3 µM | NCI-H226 > 100 µM | IGROV-1 > 100 µM | OVCAR-8 89.1 µM | SF-268 > 100 µM | TK-10 > 100 µM | SN12C > 100 µM | NCI-H522 > 100 µM | DMS-273 76 µM | OVCAR-4 > 100 µM | 786-0 > 100 µM | SF-295 > 100 µM | A549 > 100 µM | SW-620 > 100 µM | KM12 > 100 µM | SNB-19 > 100 µM | M14 > 100 µM | SNB-78 > 100 µM | OVCAR-3 > 100 µM | NCI-H23 18.6 µM | HOP-62 > 100 µM | RPMI-8226 32.8 µM | M19-MEL > 100 µM

C1=CC=C2NCCCCCC/N=C3\C=CC=CC=C3NCCc3cccc(c3)CC/N=C/2C=C1
15.8 µM: HCT-15
inactive: CAKI-1 33.3 µM | LXFL 529 10.7 µM | OVCAR-5 14.4 µM | UO-31 16.7 µM | UACC-257 22.8 µM | DLD-1 36.6 µM | RXF 393 13.4 µM | DMS-114 13.3 µM | HT-29 6.07 µM | COLO 205 14.3 µM | SK-OV-3 25.5 µM | SNB-75 21.3 µM | HOP-92 23.7 µM | EKVX 37 µM | RXF 631 11.2 µM | Malme-3M 35.3 µM | MOLT-4 7.78 µM | SF-539 10.8 µM | ACHN 33 µM | CCRF-CEM 15.9 µM | K562 4.59 µM | HL-60 5.43 µM | U-251 18.7 µM | UACC-62 21.7 µM | HCT-116 6.27 µM | HCC 2998 10 µM | SK-MEL-2 26.9 µM | SR 9.82 µM | NCI-H460 5.42 µM | NCI-H226 32.5 µM | IGROV-1 16.9 µM | OVCAR-8 14.8 µM | SF-268 31.7 µM | KM-20L2 4.81 µM | SN12C 29.7 µM | NCI-H522 16.9 µM | DMS-273 10.2 µM | OVCAR-4 12.7 µM | 786-0 10 µM | LOX IMVI 4.63 µM | SF-295 16.9 µM | A549 35.2 µM | SW-620 4.67 µM | KM12 14.7 µM | SNB-19 26.5 µM | M14 11 µM | SNB-78 > 100 µM | OVCAR-3 27.7 µM | NCI-H23 13.1 µM | HOP-62 10 µM | RPMI-8226 7.45 µM | M19-MEL 16.7 µM

CC(=O)NC(CCCNC(=O)NCCCl)C(=O)NCc1ccccc1 (stereo not given)
inactive: CAKI-1 > 100 µM | LXFL 529 > 100 µM | SK-MEL-28 > 100 µM | UO-31 > 100 µM | UACC-257 > 100 µM | RXF 393 > 100 µM | DMS-114 > 100 µM | HT-29 > 100 µM | COLO 205 > 100 µM | SNB-75 > 100 µM | HOP-92 > 100 µM | SK-MEL-5 > 100 µM | EKVX > 100 µM | RXF 631 > 100 µM | Malme-3M > 100 µM | MOLT-4 > 100 µM | SF-539 > 100 µM | ACHN > 100 µM | CCRF-CEM > 100 µM | K562 > 100 µM | HL-60 > 100 µM | U-251 > 100 µM | UACC-62 > 100 µM | HCT-116 > 100 µM | HCC 2998 > 100 µM | SK-MEL-2 > 100 µM | SR > 100 µM | NCI-H460 > 100 µM | NCI-H226 > 100 µM | OVCAR-8 > 100 µM | SF-268 > 100 µM | KM-20L2 > 100 µM | TK-10 > 100 µM | SN12C > 100 µM | HOP-18 > 100 µM | NCI-H522 > 100 µM | DMS-273 > 100 µM | OVCAR-4 > 100 µM | 786-0 > 100 µM | SF-295 > 100 µM | A549 > 100 µM | SW-620 > 100 µM | KM12 > 100 µM | SNB-19 > 100 µM | M14 > 100 µM | OVCAR-3 > 100 µM | NCI-H23 > 100 µM | HOP-62 > 100 µM | RPMI-8226 > 100 µM | M19-MEL > 100 µM
> 100 µM: HCT-15

CC(=O)NNc1nc(C)c(C(=O)/C=C/c2ccc(NC(C)=O)cc2)s1
inactive: CAKI-1 > 100 µM | SK-MEL-28 > 100 µM | OVCAR-5 > 100 µM | UO-31 > 100 µM | UACC-257 98.6 µM | DLD-1 > 100 µM | RXF 393 > 100 µM | HT-29 > 100 µM | COLO 205 > 100 µM | SK-OV-3 > 100 µM | SNB-75 > 100 µM | HOP-92 > 100 µM | SK-MEL-5 > 100 µM | EKVX 71.3 µM | RXF 631 > 100 µM | Malme-3M > 100 µM | MOLT-4 > 100 µM | SF-539 > 100 µM | A498 > 100 µM | ACHN > 100 µM | CCRF-CEM > 100 µM | K562 > 100 µM | HL-60 > 100 µM | U-251 > 100 µM | UACC-62 > 100 µM | HCC 2998 > 100 µM | SK-MEL-2 > 100 µM | NCI-H460 > 100 µM | IGROV-1 > 100 µM | OVCAR-8 > 100 µM | SF-268 > 100 µM | KM-20L2 > 100 µM | TK-10 > 100 µM | SN12C > 100 µM | HOP-18 > 100 µM | NCI-H522 > 100 µM | DMS-273 > 100 µM | 786-0 > 100 µM | LOX IMVI > 100 µM | SF-295 > 100 µM | A549 > 100 µM | SW-620 > 100 µM | KM12 > 100 µM | SNB-19 > 100 µM | SNB-78 > 100 µM | OVCAR-3 > 100 µM | NCI-H23 > 100 µM | HOP-62 > 100 µM | RPMI-8226 > 100 µM | M19-MEL > 100 µM
> 100 µM: HCT-15

O=C1C2C3C=CC(C2C(=O)N1COP(=O)(O)O)C1C2C(=O)N(COP(=O)(O)O)C(=O)C2C31 (stereo not given)
inactive: CAKI-1 > 100 µM | LXFL 529 > 100 µM | SK-MEL-28 > 100 µM | OVCAR-5 > 100 µM | UO-31 > 100 µM | UACC-257 > 100 µM | DLD-1 > 49.2 µM | RXF 393 > 100 µM | DMS-114 > 41.7 µM | HT-29 > 100 µM | COLO 205 > 47.5 µM | SK-OV-3 > 100 µM | SNB-75 > 100 µM | HOP-92 > 100 µM | SK-MEL-5 > 100 µM | XF498 > 100 µM | EKVX > 100 µM | Malme-3M > 100 µM | MOLT-4 > 100 µM | SF-539 > 100 µM | A498 > 100 µM | ACHN > 91.2 µM | CCRF-CEM > 42.4 µM | K562 > 67 µM | HL-60 15.5 µM | U-251 > 70.5 µM | UACC-62 > 100 µM | HCT-116 > 42.6 µM | HCC 2998 > 100 µM | SK-MEL-2 > 100 µM | SR 17.5 µM | NCI-H460 > 41.9 µM | NCI-H226 > 100 µM | IGROV-1 > 100 µM | OVCAR-8 > 100 µM | SF-268 > 67.5 µM | KM-20L2 > 100 µM | TK-10 > 100 µM | SN12C > 74.3 µM | HOP-18 > 100 µM | NCI-H522 > 100 µM | DMS-273 > 41.4 µM | OVCAR-4 > 100 µM | 786-0 > 71.6 µM | LOX IMVI > 43.4 µM | SF-295 > 100 µM | A549 > 69.7 µM | SW-620 > 45.7 µM | KM12 > 100 µM | SNB-19 > 100 µM | M14 > 100 µM | SNB-78 > 100 µM | OVCAR-3 > 100 µM | NCI-H23 > 100 µM | HOP-62 > 100 µM | RPMI-8226 > 46.1 µM | M19-MEL > 100 µM
> 41.3 µM: HCT-15
